This note sets out measurements from US9708286B2, “Ingenol-3-acylates III and ingenol-3-carbamates” (LEO Laboratories Limited, priority 2010, dated 2017).

Format in all cases: cell-based
The test system of one assay is HeLa cells. In words: Necrosis assay. The settings on record: Homo sapiens, HeLa, 0.5 h, read-out: HeLa necrosis EC50 range. In a few lines: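 HeLa cells treated with compound at 10 μM to 400 μM (final) for 30 min at 37° C., viability then measured by PrestoBlue fluorescence (ex 535/em 630 nm). Normalized to 1% DMSO and 400 μM ingenol mebutate controls; AbsEC50 from four-parameter sigmoidal fit.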

Assay [1] concerns Primary human epidermal keratinocytes, HeKa. Nature of the assay: HeKa cytokine release (IL-8). The settings on record: Homo sapiens, HEKa, 6 h, read-out: HeKa cytokine release (IL-8) Rel EC50 range. The method, boiled down: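 Seeded cells exposed to compound dilutions for 6 h at 37° C; IL-8 in supernatant quantified by MSD sandwich electrochemiluminescence immunoassay. Effects normalized to positive control (1.5×10^−7 M PEP0005), four-parameter sigmoidal fit; Rel EC50 is concentration midway between fitted top and bottom.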

Assay [2] concerns PMN's (polymorphonuclear leukocytes). In words: Neutrophil oxidative burst. The settings on record: Leukocyte, 40 min, read-out: Neutrophil oxidative burst Rel EC50 range, PMN from buffy coats, 40 min at RT, hydroethidine fluorescence; normalized to 5×10^−7 M PEP0005. In a few lines: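 Human buffy-coat neutrophils (2.5×10^5/well) in HBSS with 0.1% BSA, 5 mM glucose treated with compound premixed with 10 μM hydroethidine for 40 min at RT; fluorescence read at 485/579 nm. Normalized to 5×10^−7 M PEP0005; Rel EC50 is midway between fitted top and bottom, Abs EC50 gives 50% of PEP0005 maximum.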

A value given as a limit tells only on which side of the number the result lay.

In general, EC50 refers to the concentration that produces a half-maximal response.

For the compound `CC1=C[C@]23C(=O)[C@@H](C=C(CO)[C@@H](O)[C@]2(O)[C@H]1OC(=O)c1c(C)nsc1C)[C@H]1[C@@H](C[C@H]3C)C1(C)C` [Compound 552, Ingenol 3-(3,5-dimethylisothiazole-4-carboxylate)], the results for the EC50 (in the assay with HeLa cells; in assay [1]; in assay [2]) were 150000 to 350000 nM, 20 to 100 nM and 20 to 100 nM, respectively.
With `CC1=C[C@]23C(=O)[C@@H](C=C(CO)[C@@H](O)[C@]2(O)[C@H]1OC(=O)c1c(C)nsc1I)[C@H]1[C@@H](C[C@H]3C)C1(C)C` [Compound 553, Ingenol 3-(5-iodo-3-methyl-isothiazole-4-carboxylate)], the 50% effective concentration (EC50) with HeLa cells is 150000 to 350000 nM; in assay [1], below 20 nM; in assay [2], below 20 nM.
On to `COc1ccc(-c2cnn(C)c2C(=O)O[C@H]2C(C)=C[C@]34C(=O)[C@@H](C=C(CO)[C@@H](O)[C@]23O)[C@H]2[C@@H](C[C@H]4C)C2(C)C)cc1` [Compound 554, Ingenol 3-(4-(4-methoxyphenyl)-2-methyl-pyrazole-3-carboxylate)], for which the EC50 with HeLa cells is below 150000 nM; in assay [1], below 20 nM; in assay [2] it was below 20 nM.
As to `CC1=C[C@]23C(=O)[C@@H](C=C(CO)[C@@H](O)[C@]2(O)[C@H]1OC(=O)c1c(-c2ccccc2C)cnn1C)[C@H]1[C@@H](C[C@H]3C)C1(C)C` [Compound 555, Ingenol 3-(4-(2-methylphenyl)-2-methyl-pyrazole-3-carboxylate)], the EC50 in the assay with HeLa cells is below 150000 nM; in assay [1], below 20 nM; in assay [2], below 20 nM.
For `CC1=C[C@]23C(=O)[C@@H](C=C(CO)[C@@H](O)[C@]2(O)[C@H]1OC(=O)c1c(-c2ccc(S(C)(=O)=O)cc2)cnn1C)[C@H]1[C@@H](C[C@H]3C)C1(C)C` [Compound 556, Ingenol 3-(2-methyl-4-(4-methylsulfonylphenyl)pyrazole-3-carboxylate)], the EC50 in the assay with HeLa cells is 150000 to 350000 nM; in assay [1], 20 to 100 nM; in assay [2], 20 to 100 nM.
For the compound `CC1=C[C@]23C(=O)[C@@H](C=C(CO)[C@@H](O)[C@]2(O)[C@H]1OC(=O)c1c(-c2ccccc2)cnn1C)[C@H]1[C@@H](C[C@H]3C)C1(C)C` [Compound 557, Ingenol 3-(2-methyl-4-phenyl-pyrazole-3-carboxylate)], the EC50 with HeLa cells is below 150000 nM; in assay [1] it was below 20 nM; in assay [2], below 20 nM.
With `CC1=C[C@]23C(=O)[C@@H](C=C(CO)[C@@H](O)[C@]2(O)[C@H]1OC(=O)c1c(C)nn(-c2ccccc2)c1C)[C@H]1[C@@H](C[C@H]3C)C1(C)C` [Compound 558, Ingenol 3-(3,5-dimethyl-1-phenyl-pyrazole-4-carboxylate)], the EC50 is below 150000 nM in the assay with HeLa cells, below 20 nM in assay [1] and below 20 nM in assay [2].
Turning to `CC1=C[C@]23C(=O)[C@@H](C=C(CO)[C@@H](O)[C@]2(O)[C@H]1OC(=O)c1c(-c2ccccc2)nn(C)c1C)[C@H]1[C@@H](C[C@H]3C)C1(C)C` [Compound 559, Ingenol 3-(1,5-dimethyl-3-phenyl-pyrazole-4-carboxylate)], the EC50 is 150000 to 350000 nM in the assay with HeLa cells, below 20 nM in assay [1] and below 20 nM in assay [2].
In the case of `CC1=C[C@]23C(=O)[C@@H](C=C(CO)[C@@H](O)[C@]2(O)[C@H]1OC(=O)c1c(C)nn(Cc2ccccc2)c1C)[C@H]1[C@@H](C[C@H]3C)C1(C)C` [Compound 560, Ingenol 3-(1-benzyl-3,5-dimethyl-pyrazole-4-carboxylate)], the EC50 in the assay on HeLa cells is below 150000 nM; in assay [1], below 20 nM; in assay [2], below 20 nM.
For the compound `CC1=C[C@]23C(=O)[C@@H](C=C(CO)[C@@H](O)[C@]2(O)[C@H]1OC(=O)c1c2c(nn1C)CCCC2)[C@H]1[C@@H](C[C@H]3C)C1(C)C` [Compound 563, Ingenol 3-(2-methyl-4,5,6,7-tetrahydroindazole-3-carboxylate)], the EC50 in the assay with HeLa cells is below 150000 nM; in assay [1] it was below 20 nM; in assay [2], below 20 nM.
On to `CC1=C[C@]23C(=O)[C@@H](C=C(CO)[C@@H](O)[C@]2(O)[C@H]1OC(=O)c1c(C)n(C)c2ccccc12)[C@H]1[C@@H](C[C@H]3C)C1(C)C` [Compound 564, Ingenol 3-(1,2-dimethylindole-3-carboxylate)], for which the EC50 in the assay on HeLa cells is below 150000 nM; in assay [1], below 20 nM; in assay [2], below 20 nM.
As to `COc1ccc2c(c1)c(C(=O)O[C@H]1C(C)=C[C@]34C(=O)[C@@H](C=C(CO)[C@@H](O)[C@]13O)[C@H]1[C@@H](C[C@H]4C)C1(C)C)c(C)n2C` [Compound 565, Ingenol 3-(5-methoxy-1,2-dimethyl-indole-3-carboxylate)], the EC50 in the assay with HeLa cells is below 150000 nM; in assay [1], below 20 nM; in assay [2] it was below 20 nM.
Regarding `CC1=C[C@]23C(=O)[C@@H](C=C(CO)[C@@H](O)[C@]2(O)[C@H]1OC(=O)c1c(C)nn(C)c1C)[C@H]1[C@@H](C[C@H]3C)C1(C)C` [Compound 566, Ingenol 3-(1,3,5-trimethylpyrazole-4-carboxylate)], the EC50 was above 350000 nM in the assay with HeLa cells, 20 to 100 nM in assay [1] and 20 to 100 nM in assay [2].
With `CC1=C[C@]23C(=O)[C@@H](C=C(CO)[C@@H](O)[C@]2(O)[C@H]1OC(=O)c1nonc1C)[C@H]1[C@@H](C[C@H]3C)C1(C)C` [Compound 567, Ingenol 3-(4-methyl-1,2,5-oxadiazole-3-carboxylate)], the EC50 is above 350000 nM with HeLa cells, above 100 nM in assay [1] and 20 to 100 nM in assay [2].
As for `COc1nc(C)c(C(=O)O[C@H]2C(C)=C[C@]34C(=O)[C@@H](C=C(CO)[C@@H](O)[C@]23O)[C@H]2[C@@H](C[C@H]4C)C2(C)C)s1` [Compound 568, Ingenol 3-(2-methoxy-4-methyl-thiazole-5-carboxylate)], the EC50 in the assay on HeLa cells is 150000 to 350000 nM; in assay [1], 20 to 100 nM; in assay [2] it was 20 to 100 nM.
With `CC1=C[C@]23C(=O)[C@@H](C=C(CO)[C@@H](O)[C@]2(O)[C@H]1OC(=O)c1nn(C)cc1Br)[C@H]1[C@@H](C[C@H]3C)C1(C)C` [Compound 570, Ingenol 3-(4-bromo-1-methyl-pyrazole-3-carboxylate)], the concentration giving a half-maximal response (EC50) with HeLa cells is 150000 to 350000 nM; in assay [1], above 100 nM; in assay [2] it was 20 to 100 nM.
For `CC1=C[C@]23C(=O)[C@@H](C=C(CO)[C@@H](O)[C@]2(O)[C@H]1OC(=O)c1c(C)c2ccccc2n1C)[C@H]1[C@@H](C[C@H]3C)C1(C)C` [Compound 571, Ingenol 3-(1,3-dimethylindole-2-carboxylate)] the same measures were below 150000 nM, below 20 nM and below 20 nM.
As for `COc1ccc2c(c1)c(C)c(C(=O)O[C@H]1C(C)=C[C@]34C(=O)[C@@H](C=C(CO)[C@@H](O)[C@]13O)[C@H]1[C@@H](C[C@H]4C)C1(C)C)n2C` [Compound 572, Ingenol 3-(5-methoxy-1,3-dimethyl-indole-2-carboxylate)], the figures for the EC50 (in the assay on HeLa cells; in assay [1]; in assay [2]) were below 150000 nM, below 20 nM and below 20 nM, respectively.
`CC1=C[C@]23C(=O)[C@@H](C=C(CO)[C@@H](O)[C@]2(O)[C@H]1OC(=O)c1c(-c2ccccc2)c2ccccc2n1C)[C@H]1[C@@H](C[C@H]3C)C1(C)C` [Compound 574, Ingenol 3-(1-methyl-3-phenyl-indole-2-carboxylate)]: the EC50 in the assay with HeLa cells was below 150000 nM; in assay [1], below 20 nM; in assay [2] it was below 20 nM.
For the compound `CC1=C[C@]23C(=O)[C@@H](C=C(CO)[C@@H](O)[C@]2(O)[C@H]1OC(=O)c1c(C)noc1C(F)(F)F)[C@H]1[C@@H](C[C@H]3C)C1(C)C` [Compound 575, Ingenol 3-(3-methyl-5-(trifluoromethyl)isoxazole-4-carboxylate)], the concentration for a half-maximal effect (EC50) in the assay with HeLa cells is below 150000 nM; in assay [1], below 20 nM; in assay [2] it was below 20 nM.
Consider `CC1=C[C@]23C(=O)[C@@H](C=C(CO)[C@@H](O)[C@]2(O)[C@H]1OC(=O)c1c(C)ccn1C)[C@H]1[C@@H](C[C@H]3C)C1(C)C` [Compound 576, Ingenol 3-(1,3-dimethylpyrrole-2-carboxylate)], for which the concentration for a half-maximal effect (EC50) in the assay with HeLa cells was below 150000 nM; in assay [1] it was below 20 nM; in assay [2], below 20 nM.
On to `CC1=C[C@]23C(=O)[C@@H](C=C(CO)[C@@H](O)[C@]2(O)[C@H]1OC(=O)c1c(C)nn(CC(F)(F)F)c1C)[C@H]1[C@@H](C[C@H]3C)C1(C)C` [Compound 577, Ingenol 3-(3,5-dimethyl-1-(2,2,2-trifluoroethyl)pyrazole-4-carboxylate)], for which the EC50 was 150000 to 350000 nM in the assay on HeLa cells, below 20 nM in assay [1] and 20 to 100 nM in assay [2].
On to `CC1=C[C@]23C(=O)[C@@H](C=C(CO)[C@@H](O)[C@]2(O)[C@H]1OC(=O)c1cc(C)n(C2CC2)c1C)[C@H]1[C@@H](C[C@H]3C)C1(C)C` [Compound 578, Ingenol 3-(1-cyclopropyl-2,5-dimethyl-pyrrole-3-carboxylate)], for which the half-maximal effective concentration (EC50) with HeLa cells was below 150000 nM; in assay [1], below 20 nM; in assay [2], below 20 nM.
